Reference: patent publication US4640910A (Abbott Laboratories, priority 1985, dated 1987)
Values after ≈ are worked out from the molar mass of the structure shown. Where two headings read alike, the source gives them in different places.

Tests used:
[1] = system: Staph. aureus ATCC 6538P; experiment: Antimicrobial spectrum, agar dilution MIC; format: cell-based; conditions: Staphylococcus aureus, ATCC6538P, BHI agar, 35°-37° C., 20-24 hours
[2] = system: Staph. aureus CMX 686B; experiment: Antimicrobial spectrum, agar dilution MIC; format: cell-based; conditions: Staphylococcus aureus, CMX686B, BHI agar, 35°-37° C., 20-24 hours
[3] = system: Staph. aureus A 5177; experiment: Antimicrobial spectrum, agar dilution MIC; format: cell-based; conditions: Staphylococcus aureus, A5177
[4] = system: Staph. epidermidis 3519; experiment: Antimicrobial spectrum, agar dilution MIC; format: cell-based; conditions: Staphylococcus epidermidis, BHI agar, 35°-37° C., 20-24 hours
[5] = system: Staph. epidermidis 3519 RARI; experiment: Antimicrobial spectrum, agar dilution MIC; format: cell-based; conditions: Staphylococcus epidermidis
[6] = system: Micrococcus luteus 9341; experiment: Antimicrobial spectrum, agar dilution MIC; format: cell-based; conditions: Micrococcus luteus 9341; BHI agar, 35°-37° C., 20-24 hours; read-out: MIC
[7] = system: Micrococcus luteus 4698; experiment: Antimicrobial spectrum, agar dilution MIC; format: cell-based; conditions: BHI agar, 35°-37° C., 20-24 hours
[8] = system: Lactobacillus casei ATCC 7469; experiment: Antimicrobial spectrum, agar dilution MIC; format: cell-based; conditions: Lacticaseibacillus casei, ATCC7469; Lactobacillus casei ATCC 7469; BHI agar, 35°-37° C., 20-24 hours; read-out: MIC
[9] = system: Strep. faecium ATCC 8043; experiment: Antimicrobial spectrum, agar dilution MIC; format: cell-based; conditions: Enterococcus faecium, ATCC8043, BHI agar, 35°-37° C., 20-24 hours
[10] = system: Strep. bovis A5169; experiment: Antimicrobial spectrum, agar dilution MIC; format: cell-based; conditions: Streptococcus equinus, BHI agar, 35°-37° C., 20-24 hours
[11] = system: Strep. agalactiae CMX 508; experiment: Antimicrobial spectrum, agar dilution MIC; format: cell-based; conditions: Streptococcus agalactiae, CMX508, BHI agar, 35°-37° C., 20-24 hours
[12] = system: Strep. pyogenes EES61; experiment: Antimicrobial spectrum, agar dilution MIC; format: cell-based; conditions: Streptococcus pyogenes, BHI agar, 35°-37° C., 20-24 hours
[13] = system: Strep. pyogenes 930; experiment: Antimicrobial spectrum, agar dilution MIC; format: cell-based; conditions: Streptococcus pyogenes, BHI agar, 35°-37° C., 20-24 hours
[14] = system: E. coli JUHL; experiment: Antimicrobial spectrum, agar dilution MIC; format: cell-based; conditions: Escherichia coli, BHI agar, 35°-37° C., 20-24 hours
[15] = system: E. coli SS; experiment: Antimicrobial spectrum, agar dilution MIC; format: cell-based; conditions: Escherichia coli, BHI agar, 35°-37° C., 20-24 hours
[16] = system: E. coli DC-2; experiment: Antimicrobial spectrum, agar dilution MIC; format: cell-based; conditions: Escherichia coli, DC2, BHI agar, 35°-37° C., 20-24 hours
[17] = system: E. coli H560; experiment: Antimicrobial spectrum, agar dilution MIC; format: cell-based; conditions: Escherichia coli, BHI agar, 35°-37° C., 20-24 hours
[18] = system: Enterobact. aerogenes ATCC 13048; experiment: Antimicrobial spectrum, agar dilution MIC; format: cell-based
[19] = system: Klebsiella pneumoniae 8045; experiment: Antimicrobial spectrum, agar dilution MIC; format: cell-based; conditions: BHI agar, 35°-37° C., 20-24 hours
[20] = system: Providencia stuartii CMX 640; experiment: Antimicrobial spectrum, agar dilution MIC; format: cell-based; conditions: Providencia stuartii, CMX640
[21] = system: Ps. aeruginosa BMH10; experiment: Antimicrobial spectrum, agar dilution MIC; format: cell-based; conditions: Pseudomonas aeruginosa, BMH10
[22] = system: Ps. aeruginosa A5007; experiment: Antimicrobial spectrum, agar dilution MIC; format: cell-based; conditions: Pseudomonas aeruginosa, BHI agar, 35°-37° C., 20-24 hours
[23] = system: Ps. aeruginosa K799/WT; experiment: Antimicrobial spectrum, agar dilution MIC; format: cell-based; conditions: Pseudomonas aeruginosa, BHI agar, 35°-37° C., 20-24 hours
[24] = system: Ps. aeruginosa K799/61; experiment: Antimicrobial spectrum, agar dilution MIC; format: cell-based; conditions: Pseudomonas aeruginosa, BHI agar, 35°-37° C., 20-24 hours
[25] = system: Ps. cepacia 2961; experiment: Antimicrobial spectrum, agar dilution MIC; format: cell-based; conditions: Burkholderia cepacia, 2961
[26] = system: Acinetobacter sp. CMX 669; experiment: Antimicrobial spectrum, agar dilution MIC; format: cell-based; conditions: SP.CMX669, BHI agar, 35°-37° C., 20-24 hours
[27] = Stability and release of drug from prodrug in aqueous buffers pH 2 to 12 (dissolution apparatus, HPLC); format: physicochemical; conditions: for conversion to active drug: 37° C.
Experimental: (§1) Samples of 2'-trimethylsilylerythromycin A and 2'-trimethylsilyl-6-O-methylerythromycin A were dissolved in 10-50 ml dimethyl sulfoxide or acetonitrile to give a solution containing 15-75 mg/ml. An aliquot containing 75 mg of prodrug was added to aqueous buffers ranging in pH from 2 to 12 to give a final volume equal to 500 ml. The buffered mixtures were stirred at 37° C. for at least 90 minutes. A standard dissolution test apparatus (Vanderkamp 600, Van-Kel Industries, Inc., 36 Meridian Road, Edisoin, N.J. 08820) was used to provide temperature and stirring rate control.
(§2) Aliquots were taken at 15, 30, 45, 60, 90, 120, 180, 240 and 360 minutes for analysis. Each sample was mixed with an internal standard, adjusted rapidly to pH 9 with 1M tricine buffer and extracted immediately with ethyl acetate. The organic extracts were evaporated and redissolved in a solution of 3% tetrahydrofuran in heptane. Samples of these solutions were injected using an autosampler (WISP 71)B, Waters Chromatography, Division of Millipore, 34 Maple Street, Milford, Mass. 01757). The prodrugs and drugs were separated by high performance liquid chromatography, detected at 225 nm using a spectrophotometer (Spectroflow 773 Absorbence Detector, Kratos Analytical Instruments), and were quantified with a digital integrator.

[28] = Solubility of prodrug in aqueous buffers; format: physicochemical
Experimental: as §1, §2

[29] = system: Strep. pyogenes; experiment: Extended mouse protection study; conditions: oral
[30] = system: Staph. aureus; experiment: Extended mouse protection study; conditions: oral
[31] = system: Strep. pneumoniae; experiment: Extended mouse protection study; conditions: oral
[32] = carboxymethylcellulose with milk (reduces gastric acid secretion)
[33] = phosphate buffer solution with milk (reduces gastric acid secretion)

Question: Which results are given for `CC[C@H]1OC(=O)[C@H](C)[C@@H](O[C@H]2C[C@@](C)(OC)[C@@H](O)[C@H](C)O2)[C@H](C)[C@@H](O[C@@H]2O[C@H](C)C[C@H](N(C)C)[C@H]2O[Si](C)(C)C)[C@](C)(OC)C[C@@H](C)C(=O)[C@H](C)[C@@H](O)[C@]1(C)O` [Example 3, 2'-O-trimethylsilyl-6-O-methyl-Erythromycin A]?
Answer: MIC [1]: 0.78 µg/mL (≈ 0.951 µM); MIC [2]: 0.78 µg/mL (≈ 0.951 µM); MIC [3]: 3.1 µg/mL (≈ 3.78 µM); MIC [4]: 0.78 µg/mL (≈ 0.951 µM); MIC [5]: 0.39 µg/mL (≈ 0.476 µM); MIC [6]: 0.1 µg/mL (≈ 0.122 µM); MIC [7]: 0.39 µg/mL (≈ 0.476 µM); MIC [8]: 0.1 µg/mL (≈ 0.122 µM); MIC [9]: 0.2 µg/mL (≈ 0.244 µM); MIC [10]: 0.1 µg/mL (≈ 0.122 µM); MIC [11]: 0.1 µg/mL (≈ 0.122 µM); MIC [12]: 0.05 µg/mL (≈ 0.061 µM); MIC [13]: 100 µg/mL (≈ 122 µM); MIC [14]: 100 µg/mL (≈ 122 µM); MIC [15]: 0.39 µg/mL (≈ 0.476 µM); MIC [16]: 100 µg/mL (≈ 122 µM); MIC [17]: 100 µg/mL (≈ 122 µM); MIC [18]: 100 µg/mL (≈ 122 µM); MIC [19]: 100 µg/mL (≈ 122 µM); MIC [20]: 100 µg/mL (≈ 122 µM); MIC [21]: 100 µg/mL (≈ 122 µM); MIC [22]: 100 µg/mL (≈ 122 µM); MIC [23]: 100 µg/mL (≈ 122 µM); MIC [24]: 25 µg/mL (≈ 30.5 µM); MIC [25]: 100 µg/mL (≈ 122 µM); MIC [26]: 50 µg/mL (≈ 61 µM); conversion to active drug ([27]; acid pH): converted to the active drug 6-O-methylerythromycin A; release rates ([27]; pH 3 and 4, 37° C.): both dissolution-rate limited release and also release from the initially dissolved material; release rates ([27]; pH 5, 6 and 7, 37° C.): dissolution-rate limited release; decomposition ([27]; pH 7, owing to solubility properties): severely restrict its decomposition; conversion to active drug ([27]; pH 8 or above): Very little or no conversion; solubility ([28]; aqueous buffer, pH 2, completely soluble, read-out: solubility): ≥ 150 µg/mL; solubility ([28]; neutral or alkaline pH): little or no solubility; ED50 [29, 32]: 7.8 mg/kg/day; ED50 ([29]; phosphate buffer solution): 12.7 mg/kg/day; ED50 [29, 33]: 14.1 mg/kg/day; ED50 ([30]; carboxymethylcellulose): 34.9 mg/kg/day; ED50 ([30]; phosphate buffer solution): 157.9 mg/kg/day; ED50 ([31]; carboxymethylcellulose): 7.9 mg/kg/day; ED50 [31, 32]: 7.3 mg/kg/day; ED50 ([31]; phosphate buffer solution): 9.3 mg/kg/day; ED50 [31, 33]: 10.9 mg/kg/day
